Test results taken from ChEMBL document CHEMBL3991601, “The target landscape of clinical kinase drugs” (Science, 2017).
The source made the active and inactive calls.

Key:
[1] = biological target: T1, Serine/threonine-protein kinase TAO3 (Homo sapiens, UniProt Q9H2K8)
T1 sequence (Q9H2K8 whole entry): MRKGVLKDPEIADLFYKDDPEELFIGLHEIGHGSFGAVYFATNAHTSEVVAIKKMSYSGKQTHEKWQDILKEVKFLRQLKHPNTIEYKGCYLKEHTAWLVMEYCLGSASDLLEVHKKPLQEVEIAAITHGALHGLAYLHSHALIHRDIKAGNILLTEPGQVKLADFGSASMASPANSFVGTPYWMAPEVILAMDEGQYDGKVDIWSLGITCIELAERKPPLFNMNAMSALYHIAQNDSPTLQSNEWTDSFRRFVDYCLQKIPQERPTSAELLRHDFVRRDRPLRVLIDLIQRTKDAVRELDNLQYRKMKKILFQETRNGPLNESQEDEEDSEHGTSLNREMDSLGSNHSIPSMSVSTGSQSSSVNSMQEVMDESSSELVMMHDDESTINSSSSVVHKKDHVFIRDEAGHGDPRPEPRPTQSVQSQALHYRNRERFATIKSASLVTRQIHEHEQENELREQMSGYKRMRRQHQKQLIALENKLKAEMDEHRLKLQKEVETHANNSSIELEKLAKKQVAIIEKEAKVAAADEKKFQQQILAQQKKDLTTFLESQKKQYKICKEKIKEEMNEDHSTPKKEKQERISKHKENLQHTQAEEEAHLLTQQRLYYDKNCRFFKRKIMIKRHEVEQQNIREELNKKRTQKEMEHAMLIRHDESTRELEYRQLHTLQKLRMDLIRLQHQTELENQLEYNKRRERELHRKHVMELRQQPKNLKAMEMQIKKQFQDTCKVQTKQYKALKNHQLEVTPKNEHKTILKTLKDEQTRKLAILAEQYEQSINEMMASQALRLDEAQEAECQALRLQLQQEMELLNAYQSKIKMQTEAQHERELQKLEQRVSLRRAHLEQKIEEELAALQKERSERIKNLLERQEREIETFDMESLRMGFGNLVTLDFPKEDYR

[2] = biological target: T2, Beta-adrenergic receptor kinase 1 (Homo sapiens, UniProt P25098)
T2 sequence (P25098 whole entry): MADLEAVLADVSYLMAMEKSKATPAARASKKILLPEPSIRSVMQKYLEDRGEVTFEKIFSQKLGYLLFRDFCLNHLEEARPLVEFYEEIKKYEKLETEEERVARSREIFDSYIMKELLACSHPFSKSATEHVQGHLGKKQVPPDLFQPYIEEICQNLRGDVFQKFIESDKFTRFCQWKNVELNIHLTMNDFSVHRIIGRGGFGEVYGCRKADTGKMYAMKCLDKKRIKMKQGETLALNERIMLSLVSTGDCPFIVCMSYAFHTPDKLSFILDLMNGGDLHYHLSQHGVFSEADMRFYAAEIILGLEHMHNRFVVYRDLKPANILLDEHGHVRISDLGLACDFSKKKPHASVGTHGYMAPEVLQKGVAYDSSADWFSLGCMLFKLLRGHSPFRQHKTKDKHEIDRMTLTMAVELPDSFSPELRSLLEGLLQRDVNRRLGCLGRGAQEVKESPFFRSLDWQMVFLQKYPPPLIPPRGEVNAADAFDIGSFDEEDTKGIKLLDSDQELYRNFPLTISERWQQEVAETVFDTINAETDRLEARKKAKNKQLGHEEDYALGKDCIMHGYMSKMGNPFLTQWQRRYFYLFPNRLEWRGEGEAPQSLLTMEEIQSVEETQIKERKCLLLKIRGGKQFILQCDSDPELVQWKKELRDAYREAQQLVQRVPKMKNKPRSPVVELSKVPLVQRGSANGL

[3] = biological target: T3, Phenylalanine--tRNA ligase beta subunit (Homo sapiens, UniProt Q9NSD9)
T3 sequence (Q9NSD9 whole entry): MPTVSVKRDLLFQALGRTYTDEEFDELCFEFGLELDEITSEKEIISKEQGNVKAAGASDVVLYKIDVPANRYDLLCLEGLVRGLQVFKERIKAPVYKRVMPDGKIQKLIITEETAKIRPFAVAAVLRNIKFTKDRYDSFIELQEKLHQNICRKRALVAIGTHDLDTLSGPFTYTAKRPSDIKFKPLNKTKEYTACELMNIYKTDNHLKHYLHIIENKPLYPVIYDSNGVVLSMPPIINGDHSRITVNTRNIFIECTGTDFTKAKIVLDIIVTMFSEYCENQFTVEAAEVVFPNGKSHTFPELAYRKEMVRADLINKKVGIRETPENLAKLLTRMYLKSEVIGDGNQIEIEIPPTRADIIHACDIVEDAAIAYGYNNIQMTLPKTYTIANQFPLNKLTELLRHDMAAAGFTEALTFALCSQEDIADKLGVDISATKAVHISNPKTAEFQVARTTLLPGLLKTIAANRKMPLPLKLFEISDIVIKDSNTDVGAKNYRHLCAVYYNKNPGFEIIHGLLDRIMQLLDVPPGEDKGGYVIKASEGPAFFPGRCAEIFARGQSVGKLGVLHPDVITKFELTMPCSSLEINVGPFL
Further: in the data inactive means no Kd found up to 30 µM.

Compound: CNC(=O)c1nn(C)c2c1C(C)(C)Cc1cnc(Nc3ccc(N4CCN(C)CC4)cc3)nc1-2 [MILCICLIB]
- Kd [1]: 10.6 µM (active)
- Kd [2]: > 30 µM (inactive)
- Kd [3]: > 30 µM (inactive)

Compound: Cn1ncc(Cl)c1-c1cc(C(=O)N[C@H](CN)Cc2ccc(F)c(F)c2)oc1Cl [UPROSERTIB]
- Kd [1]: > 30 µM (inactive)
- Kd [2]: > 30 µM (inactive)
- Kd [3]: > 30 µM (inactive)

Compound: CC(=O)NCC(=O)N1[C@@H]2CC[C@H]1c1ccc(Nc3ncc(C(F)(F)F)c(NC4CCC4)n3)cc12 [PF-03814735]
- Kd [1]: 2.4 µM (active)
- Kd [2]: > 30 µM (inactive)
- Kd [3]: > 30 µM (inactive)

Compound: CCCCCCCCCCCCCCCCCCOP(=O)([O-])OC1CC[N+](C)(C)CC1 [PERIFOSINE]
- Kd [1]: > 30 µM (inactive)
- Kd [2]: > 30 µM (inactive)
- Kd [3]: > 30 µM (inactive)

Compound: COc1ncc(-c2ccc3nccc(-c4ccnnc4)c3c2)cc1NS(=O)(=O)c1ccc(F)cc1F [OMIPALISIB]
- Kd [1]: > 30 µM (inactive)
- Kd [2]: > 30 µM (inactive)
- Kd [3]: > 30 µM (inactive)

Compound: C[C@H]1CNCCCN1S(=O)(=O)c1cccc2cncc(F)c12
- Kd [1]: 11.8 µM (active)
- Kd [2]: > 30 µM (inactive)
- Kd [3]: > 30 µM (inactive)

Compound: Cc1cnc(NC(=O)Nc2cc(Br)c(C)cc2OC[C@@H]2CNCCO2)cn1 [RABUSERTIB]
- Kd [1]: > 30 µM (inactive)
- Kd [2]: > 30 µM (inactive)
- Kd [3]: > 30 µM (inactive)

Compound: C[C@@H](Oc1cc(C(=O)Nc2ccc(C(=O)N3CCN(C)CC3)cc2)nnc1N)c1c(Cl)ccc(F)c1Cl
- Kd [1]: > 30 µM (inactive)
- Kd [2]: > 30 µM (inactive)
- Kd [3]: > 30 µM (inactive)

Compound: Cc1cccc(-c2nn3c(c2-c2ccnc4ccc(C(N)=O)cc24)CCC3)n1 [GALUNISERTIB]
- Kd [1]: > 30 µM (inactive)
- Kd [2]: > 30 µM (inactive)
- Kd [3]: > 30 µM (inactive)

Compound: O=C(Nc1nc2cccc(-c3ccc(CN4CCS(=O)(=O)CC4)cc3)n2n1)C1CC1 [FILGOTINIB]
- Kd [1]: > 30 µM (inactive)
- Kd [2]: > 30 µM (inactive)
- Kd [3]: > 30 µM (inactive)

Compound: Cc1nc(Nc2n[nH]c3c2CN(C(=O)N[C@H](CN(C)C)c2ccccc2)C3(C)C)c2sccc2n1 [PF-03758309]
- Kd [1]: > 30 µM (inactive)
- Kd [2]: 22.5 µM (active)
- Kd [3]: > 30 µM (inactive)

Compound: COc1cc([C@@H]2c3cc4c(cc3[C@H](O)[C@H]3COC(=O)[C@@H]23)OCO4)cc(OC)c1OC [AXL-1717]
- Kd [1]: > 30 µM (inactive)
- Kd [2]: > 30 µM (inactive)
- Kd [3]: > 30 µM (inactive)

Compound: Cc1[nH]c(/C=C2\C(=O)Nc3ccccc32)c(C)c1CCC(=O)O [ORANTINIB]
- Kd [1]: > 30 µM (inactive)
- Kd [2]: > 30 µM (inactive)
- Kd [3]: > 30 µM (inactive)

Compound: Cc1csc(-c2nnc(Nc3ccc(Oc4ncccc4-c4ccnc(N)n4)cc3)c3ccccc23)c1 [AMG-900]
- Kd [1]: 1.77 µM (active)
- Kd [2]: > 30 µM (inactive)
- Kd [3]: > 30 µM (inactive)

Compound: COCc1c(-c2ccc(NC(=O)Nc3cc(C(F)(F)F)ccc3F)c(F)c2)c2c(N)ncnn2c1CN1CCOCC1
- Kd [1]: > 30 µM (inactive)
- Kd [2]: > 30 µM (inactive)
- Kd [3]: > 30 µM (inactive)

Compound: Nc1ncnc2c1c(-c1cccc(OCc3ccccc3)c1)cn2[C@H]1C[C@@H](CN2CCC2)C1 [AEW-541]
- Kd [1]: > 30 µM (inactive)
- Kd [2]: > 30 µM (inactive)
- Kd [3]: > 30 µM (inactive)

Compound: CN1CCN(CCOc2cc(OC3CCOCC3)c3c(Nc4c(Cl)ccc5c4OCO5)ncnc3c2)CC1 [SARACATINIB]
- Kd [1]: > 30 µM (inactive)
- Kd [2]: > 30 µM (inactive)
- Kd [3]: > 30 µM (inactive)

Compound: CNC(=O)c1cc(Oc2ccc(NC(=O)Nc3cc(C(C)(C)C)nn3-c3ccc4ncccc4c3)c(F)c2)ccn1 [REBASTINIB]
- Kd [1]: 14.2 µM (active)
- Kd [2]: > 30 µM (inactive)
- Kd [3]: > 30 µM (inactive)

Compound: C=CC(=O)N1CCC[C@H](n2c(=O)n(-c3ccc(Oc4ccccc4)cc3)c3c(N)ncnc32)C1
- Kd [1]: > 30 µM (inactive)
- Kd [2]: > 30 µM (inactive)
- Kd [3]: > 30 µM (inactive)

Compound: COc1ccc(S(=O)(=O)N(C(C)=O)c2ccccc2/C=C/c2cc[n+]([O-])cc2)cc1 [HMN-214]
- Kd [1]: > 30 µM (inactive)
- Kd [2]: > 30 µM (inactive)
- Kd [3]: > 30 µM (inactive)

Compound: COc1cc2c(Nc3ccc(Cl)c(Cl)c3F)ncnc2cc1OC[C@@H]1C[C@@H]2CN(C)C[C@@H]2C1 [TESEVATINIB]
- Kd [1]: > 30 µM (inactive)
- Kd [2]: > 30 µM (inactive)
- Kd [3]: > 30 µM (inactive)
